Patent publication US20250188078A1, “SMALL MOLECULE INHIBITORS OF THE CRL4 UBIQUITIN LIGASE” (Cornell University, priority 2022, published 2025)
Like-named read-outs stand apart in the source and are kept apart here.

Columns and labels:
[1] = system: CUL1-dependent IκB-α degradation in Hela cells; assay: TNFα-induced CUL1/SCF-dependent IκBα degradation assay (Western blot); type: cell-based; details: FIG. 6D
Description: FIG. 6D Western blotting of TNFα-induced […] IκBα degradation assay. Hela cells were seeded in 6-well plates. After 24 hours incubation, DMSO or indicated concentration of compounds were added with serum-free medium for 2 hours incubation. TNFα was added and cells were harvested, lysed in buffer containing 150 mM NaCl, 1% SDS, 10 mM Tris-HCl (pH 6.8), 1× complete protease inhibitor cocktail and 10 U Benzo nuclease. Equal amounts of proteins were resolved on 9% SDS-PAGE gel and IκBα levels were detected using anti-IκBα rabbit polyclonal antibody (Proteintech, 10268-1-AP). α-tubulin (Proteintech, #66031-1-Ig) was used as an internal loading control. TNFα-induced IκBα degradation was mediated by CUL1/SCF^βTrCP E3 ligase.

[2] = system: CUL4A^low T47D breast cancer cells; assay: Cell killing in CUL4-low T47D cells (CellTiter Glo); type: cell-based; details: Homo sapiens, 192 h, 8 days treatment
[3] = system: CUL4A^high MDA-MB-468 breast cancer cells; assay: Cell killing in CUL4-high MDA-MB-468 cells (CellTiter Glo); type: cell-based; details: Homo sapiens, 8 days treatment
Procedure, shortened: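 Cells seeded, treated after 24 h with DMSO or compound (0 to 20 μM). Medium and compound replaced every 48 h over 8 days. Viability measured by CellTiter-Glo luminescence; EC50 (50% killing) from log(inhibitor) vs response nonlinear fit.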

[4] = molecular target: CUL4A-DDB1-BPB interaction (Homo sapiens (Human), UniProt Q16531); assay: AlphaLISA in vitro binding assay, CUL4A and DDB1-BPB binding; details: inhibition of CUL4A and DDB1-BPB binding
Sequence of CUL4A-DDB1-BPB interaction (Q16531 403-706): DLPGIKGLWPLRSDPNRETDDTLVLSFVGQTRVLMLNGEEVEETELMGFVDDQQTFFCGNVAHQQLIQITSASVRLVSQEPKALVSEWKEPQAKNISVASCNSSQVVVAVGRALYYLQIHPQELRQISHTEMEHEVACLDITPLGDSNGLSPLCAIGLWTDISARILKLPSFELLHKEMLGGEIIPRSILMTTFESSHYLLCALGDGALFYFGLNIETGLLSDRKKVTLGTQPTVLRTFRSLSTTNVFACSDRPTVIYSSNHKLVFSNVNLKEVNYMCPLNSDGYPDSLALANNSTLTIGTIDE
Procedure, shortened: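 Compound disruption of CUL4A binding to DDB1-BPB measured by AlphaLISA/AlphaScreen bead proximity in 384-well format. IC50 from nonlinear log(inhibitor)-vs-response curve fit.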

[5] = system: CUL4A-Vpr-dependent UNG2 degradation in Hela DOX-inducible-Vpr cells; assay: DOX-induced Vpr-mediated CUL4-dependent UNG2 degradation (Western blot); type: cell-based; details: FIG. 6C
Description: FIG. 6C. Inhibition of DOX-induced Vpr-mediated CUL4-dependent UNG2 degradation by small molecule CUL4 inhibitors. In brief, Hela DOX-inducible-Vpr cells were seeded in 6-well plates. After 24 hours incubation, medium was changed to growth medium with 75 ng/ml doxycycline (DOX) overnight. On the third day, DMSO or indicated concentrations of compounds in serum-free medium containing DOX were added. The cells were lysed in buffer containing 150 mM NaCl, 1% SDS, 10 mM Tris-HCl (pH 6.8), 1× complete protease inhibitor cocktail and 10 U Benzo nuclease. Equal amounts of proteins were resolved on 9% SDS-PAGE gel and UNG2 levels were detected using anti-UNG2 (2C12) antibody (Origene #TA503563). α-tubulin (Proteintech, #66031-1-Ig) was used as an internal control. Normalized UNG2/α-tubulin ratio is higher in the compound treated sample than DMSO treated sample. (−) means that no change happens between compound treated sample with control sample.

[6] = T47D cells, read-out: EC50 CUL4-Low Cells (cell killing)
[7] = 192 h, MDA-MB-468 cells, read-out: EC50 CUL4-High Cells (cell killing)

Compound | Inhibition of TNF-α induced CUL1-dependent IκB-α degradation [1] | EC50 [2, 6] | EC50 [3, 7] | IC50 [4] | Inhibition of CUL4A-Vpr-dependent UNG2 degradation [5] | EC50 ([2]; T47D, Table 3, 0 to 20 μM compound, read-out: EC50 OF cell killing, T47D) | EC50 ([3]; MDA-MB-468, 192 h, Table 3, 0 to 20 μM compound, read-out: EC50 OF cell killing, MDA-MB-468)
CN(c1ccc(-c2nc(C(=O)O)cc3c2[nH]c2ccc(F)cc23)cc1)S(=O)(=O)c1ccccc1 [PA93] | no inhibition | > 100000 nM | 11100 nM | 210 ± 100 nM | robust inhibition | – | –
CN(c1ccc(-c2nc(C(=O)O)cc3c2[nH]c2cccc(F)c23)cc1)S(=O)(=O)c1ccccc1 [PA99, 5-fluoro-1-(4-(N-methylphenylsulfonamido)phenyl)-9H-pyrido[3,4-b]indole-3-carboxylic acid] | no inhibition | 8270 nM | 1180 nM | 380 nM | robust inhibition | 8270 nM | 1180 nM
